Test results from patent US6635771B2, “N-benzhydryl indole compounds” (Wyeth, priority 2001, dated 2003).

Target: T1, cPLA2 (Homo sapiens, UniProt P47712)
T1 sequence (P47712 1-749): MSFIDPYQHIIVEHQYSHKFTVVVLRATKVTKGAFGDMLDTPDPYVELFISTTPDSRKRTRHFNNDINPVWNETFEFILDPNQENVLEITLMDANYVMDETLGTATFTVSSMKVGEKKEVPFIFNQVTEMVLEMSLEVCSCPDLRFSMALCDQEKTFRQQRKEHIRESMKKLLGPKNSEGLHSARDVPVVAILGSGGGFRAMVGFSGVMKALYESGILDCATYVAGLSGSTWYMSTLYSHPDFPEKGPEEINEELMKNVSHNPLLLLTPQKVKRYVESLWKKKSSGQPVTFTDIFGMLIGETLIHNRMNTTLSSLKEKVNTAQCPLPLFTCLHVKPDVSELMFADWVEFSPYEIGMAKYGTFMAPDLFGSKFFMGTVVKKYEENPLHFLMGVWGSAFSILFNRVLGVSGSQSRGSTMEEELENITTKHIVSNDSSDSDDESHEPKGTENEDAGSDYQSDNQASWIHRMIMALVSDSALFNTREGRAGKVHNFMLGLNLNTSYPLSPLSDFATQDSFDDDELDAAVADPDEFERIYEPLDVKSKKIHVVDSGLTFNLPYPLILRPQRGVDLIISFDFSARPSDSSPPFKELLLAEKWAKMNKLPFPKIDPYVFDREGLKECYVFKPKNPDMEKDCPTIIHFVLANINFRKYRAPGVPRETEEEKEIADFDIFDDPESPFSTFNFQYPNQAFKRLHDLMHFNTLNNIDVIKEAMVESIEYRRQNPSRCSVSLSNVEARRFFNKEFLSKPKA
Assay: Coumarine Assay
Type: biochemical
Details: 60 μM 7-hydroxycoumarinyl 6-heptenoate substrate, 4 μg cPLA2, pH 7.5, fluorescence ex 360 nm / em 460 nm; read-out: Coumarin IC50
Method: Inhibitors were mixed with 200 μL assay buffer (80 mM Heped, pH 7.5, 1 mM EDTA) containing 60 μM 7-hydroxycoumarinyl 6-heptenoate. The reaction was initiated by adding 4 μg cPLA2 in 50 μL assay buffer. Hydrolysis of the 7-hydroxycounarimyl 6-heptenoate ester was monitored in a fluorometer by exciting at 360 nm and monitoring emission at 460 nm. Enzyme activity is proportional to the increase in emission at 460 nm per minute. In the presence of a cPLA2 inhibitor, the rate of increase is less.

`COc1ccc(OC)c(SCS(=O)(=O)NCCc2c(CCOc3ccc(C(=O)O)cc3)c3cc(Cl)ccc3n2C(c2ccccc2)c2ccccc2)c1` [Example 121, 4-(2-{1-benzhydryl-5-chloro-2-[2-(2,5-dimethoxy-phenylsulfanylmethanesulfonylamino)-ethyl]-1H-indol-3-yl}-ethoxy)-benzoic acid] and `COc1ccc(SCS(=O)(=O)NCCc2c(CCOc3ccc(C(=O)O)cc3)c3cc(Cl)ccc3n2C(c2ccccc2)c2ccccc2)cc1OC` [Example 86] are within 1.5-fold of each other in IC50: 460 nM for the first, 600 nM for the second.

Going from `O=C(O)c1ccc(S(=O)(=O)CCc2c(CCNS(=O)(=O)Cc3ccccc3Cl)n(C(c3ccccc3)c3ccccc3)c3ccc(Cl)cc23)cc1` [Example 136] to `O=C(O)CCc1ccc(S(=O)(=O)CCc2c(CCNS(=O)(=O)Cc3ccccc3Cl)n(C(c3ccccc3)c3ccccc3)c3ccc(Cl)cc23)cc1` [Example 133, 3-[4-({2-[1-benzhydryl-5-chloro-2-(2-{[(2-chlorobenzyl)sulfonyl]amino}ethyl)-1H-indol-3-yl]ethyl}sulfonyl)phenyl]propanoic acid], the IC50 falls from 180 nM to 90 nM (2-fold).

`Cc1cc(C)n(CCS(=O)(=O)NCCc2c(CCCc3ccc(C(=O)O)cc3)c3cc(Cl)ccc3n2C(c2ccccc2)c2ccccc2)n1` [Example 102] and `Cc1cccc(C)c1CS(=O)(=O)NCCc1c(CCCc2ccc(C(=O)O)cc2)c2cc(Cl)ccc2n1C(c1ccccc1)c1ccccc1` [Example 52, 4-{3-[1-benzhydryl-5-chloro-2-(2-{[(2,6-dimethylbenzyl)sulfonyl]amino}ethyl)-1H-indoly-3-yl]propyl}benzoic acid] are within 1.5-fold of each other in IC50: 190 nM for the first, 130 nM for the second.

`O=C(O)c1ccc(OCCc2c(CCNS(=O)(=O)CSc3ccccc3Cl)n(C(c3ccccc3)c3ccccc3)c3ccc(Cl)cc23)cc1` [Example 119] and `Cc1ccccc1SCS(=O)(=O)NCCc1c(CCOc2ccc(C(=O)O)cc2)c2cc(Cl)ccc2n1C(c1ccccc1)c1ccccc1` [Example 118, 4-{2-[1-benzhydryl-5-chloro-2-(2-o-tolylsulfanylmethanesulfonylamino-ethyl)-1H-indol-3-yl]-ethoxy}-benzoic acid] are the same in IC50: 400 nM for the first, 400 nM for the second.

`O=C(O)c1ccc(OCCc2c(CCNS(=O)(=O)Cc3c(F)cccc3F)n(C(c3ccccc3)c3ccccc3)c3ccc(Cl)cc23)cc1` [Example 74] and `O=C(O)c1ccc(OCCc2c(CCNS(=O)(=O)Cc3ccc(F)c(F)c3)n(C(c3ccccc3)c3ccccc3)c3ccc(Cl)cc23)cc1` [Example 18, 4-{2-[1-Benzhydryl-5-chloro-2-(2{[(3,4-difluorobenzyl)sulfonyl]amino}-ethyl)-1H-indol-3-yl]ethoxy}benzoic acid] are within 1.5-fold of each other in IC50: 280 nM for the first, 400 nM for the second.

`Cc1cccc(C)c1SCS(=O)(=O)NCCc1c(CCOc2ccc(C(=O)O)cc2)c2cc(Cl)ccc2n1C(c1ccccc1)c1ccccc1` [Example 82] and `O=C(O)c1ccc(OCCc2c(CCNS(=O)(=O)CSc3c(Cl)cccc3Cl)n(C(c3ccccc3)c3ccccc3)c3ccc(Cl)cc23)cc1` [Example 120, 4-(2-{1-benzhydryl-5-chloro-2-[2-(2,6-dichloro-phenylsulfanylmethanesulfonylamino)-ethyl]-1H-indol-3-yl}-ethoxy)-benzoic acid] are within 1.5-fold of each other in IC50: 500 nM for the first, 400 nM for the second.

Compared with `O=C(O)c1ccc(OCCc2c(CCNS(=O)(=O)Cc3ccc(Cl)cc3Cl)n(C(c3ccccc3)c3ccccc3)c3ccc(Cl)cc23)cc1` [Example 30, 4-{2-[1-benzhydryl-5-chloro-2-(2-{[(2,4-dichlorobenzyl)sulfonyl]amino}ethyl)-1H-indol-3-yl]ethoxy}benzoic acid], `O=C(O)c1ccc(OCCc2c(CCNS(=O)(=O)Cc3c(Cl)cccc3Cl)n(C(c3ccccc3)c3ccccc3)c3ccc(Cl)cc23)cc1` [Example 80, 4-{2-[1-Benzhydryl-5-chloro-2-(2-{[(2,6-dichlorobenzyl)sulfonyl]amino}ethyl)-1H-indol-3-yl]ethoxy}benzoic acid] is 25-fold higher in IC50: 150 nM for the first, 3700 nM for the second.

Going from `O=C(O)c1ccc(OCCc2c(CCNS(=O)(=O)Cc3ccsc3)n(C(c3ccccc3)c3ccccc3)c3ccc(Cl)cc23)cc1` [Example 112, 4-{2-[1-Benzhydryl-5-chloro-2-(2-{[(3-thienylmethyl)sulfonyl]amino}ethyl)-1H-indol-3-yl]ethoxy}benzoic acid] to `O=C(O)c1ccc(OCCc2c(CCNS(=O)(=O)Cc3ccc(F)cc3)n(C(c3ccccc3)c3ccccc3)c3ccc(Cl)cc23)cc1` [Example 14, 4-{2-[1-Benzhydryl-5-chloro-2-(2-{[(4-fluorobenzyl)sulfonyl]amino}-ethyl)-1H-indol-3-yl]ethoxy}benzoic acid], the IC50 falls from 1200 nM to 800 nM (1.5-fold). The second is the more potent here.

Going from `N#Cc1ccccc1CS(=O)(=O)NCCc1c(CCOc2ccc(C(=O)O)cc2)c2cc(Cl)ccc2n1C(c1ccccc1)c1ccccc1` [Example 108, 4-{2-[1-Benzhydryl-5-chloro-2-(2-{[(2-cyanobenzyl)sulfonyl]amino}ethyl)-1H-indol-3-yl]ethoxy}benzoic acid] to `O=C(O)c1ccc(OCCc2c(CCNS(=O)(=O)Cc3ccccc3[N+](=O)[O-])n(C(c3ccccc3)c3ccccc3)c3ccc(Cl)cc23)cc1` [Example 9, 4-{2-[1-Benzhydryl-5-chloro-2-(2-[({2-nitrobenzyl}-sulfonyl)amino]ethyl}-1H-indol-3-yl)ethoxy]benzoic acid], the IC50 rises from 150 nM to 700 nM (4.7-fold). The first is the more potent here.

First: CS(=O)(=O)c1ccc(CS(=O)(=O)NCCc2c(CCOc3ccc(C(=O)O)cc3)c3cc(Cl)ccc3n2C(c2ccccc2)c2ccccc2)cc1 [Example 40, 4-(2-{1-Benzhydryl-5-chloro-2-[2-(4-methanesulfonyl-phenylmethanesulfonylamino)-ethyl]-1H-indol-3-yl}-ethoxy)-benzoic acid]
Second: O=C(O)c1ccc(OCCc2c(CCNS(=O)(=O)Cc3ccc(Cl)nc3)n(C(c3ccccc3)c3ccccc3)c3ccc(Cl)cc23)cc1 [Example 75, 4-(2-{1-benzhydryl-5-chloro-2-[2-({[(6-chloro-3-pyridinyl)methyl]sulfonyl}amino)ethyl]-1H-indol-3-yl}ethoxy)benzoic acid]
The IC50 of the first is 1.8-fold higher: 730 nM for the first, 400 nM for the second.

Going from `CC(C)S(=O)(=O)NCCc1c(CCOc2ccc(C(=O)O)cc2)c2cc(Cl)ccc2n1C(c1ccccc1)c1ccccc1` [Example 2, 4-[2-(1-Benzhydryl-5-chloro-2-{2-[(isopropylsulfonyl)amino]ethyl}-1H-indol-3-yl)ethoxy]benzoic acid] to `CC1CCCN1CCS(=O)(=O)NCCc1c(CCOc2ccc(C(=O)O)cc2)c2cc(Cl)ccc2n1C(c1ccccc1)c1ccccc1` (centres unmarked) [Example 113, 4-[2-(1-Benzhydryl-5-chloro-2-{2-[2-(2-methyl-pyrrolidin-1-yl)-ethanesulfonylamino]-ethyl}-1H-indol-3-yl)-ethoxy]-benzoic acid], the IC50 falls from 2000 nM to 1300 nM (1.5-fold). The second is the more potent here.

`O=C(O)c1ccc(OCCc2c(CCNS(=O)(=O)CCn3cnnn3)n(C(c3ccccc3)c3ccccc3)c3ccc(Cl)cc23)cc1` [Example 104, 4-(2-{1-benzhydryl-5-chloro-2-[2-(2-tetrazol-1-yl-ethanesulfonylamino)-ethyl]-1H-indol-3-yl}ethoxy)benzoic acid] and `O=C(O)c1ccc(OCCc2c(CCNS(=O)(=O)CCN3CCNC3=S)n(C(c3ccccc3)c3ccccc3)c3ccc(Cl)cc23)cc1` [Example 97, 4-(2-{1-benzhydryl-5-chloro-2-[2-({[2-(2-thioxo-1-imidazolidinyl)ethyl]sulfonyl}amino)ethyl]-1H-indol-3-yl}ethoxy)benzoic acid] are within 1.5-fold of each other in IC50: 1100 nM for the first, 950 nM for the second.

Compared with `CC1(C)C2CC[C@]1(CS(=O)(=O)NCCc1c(CCOc3ccc(C(=O)O)cc3)c3cc(Cl)ccc3n1C(c1ccccc1)c1ccccc1)C(=O)C2` [Example 6, 4-[2-(1-Benzhydryl-5-chloro-2-{2-[({[(1R)-7,7-dimethyl-2-oxobicyclo[2.2.1]hept-1-yl]methyl}sulfonyl)amino]ethyl}-1H-indol-3-yl)ethoxy]benzoic acid], `O=C(O)c1ccc(OCCc2c(CCNS(=O)(=O)CCNc3ccccc3)n(C(c3ccccc3)c3ccccc3)c3ccc(Cl)cc23)cc1` [Example 89, 4-(2-{1-Benzhydryl-5-chloro-2-[2-(2-phenylamino-ethanesulfonylamino)-ethyl]-1H-indol-3-yl}-ethoxy)-benzoic acid] is 5.3-fold lower in IC50: 2000 nM for the first, 380 nM for the second. The second is the more potent here.

First: O=C(O)c1ccc(OCCc2c(CCNS(=O)(=O)c3ccc(Cl)c(Cl)c3)n(C(c3ccccc3)c3ccccc3)c3ccc(Cl)cc23)cc1 [Example 28, 4-{2-[1-benzhydryl-5-chloro-2-(2{[(3,4-dichlorophenyl)sulfonyl]amino}ethyl)-1H-indol-3-yl]ethoxy}benzoic acid]
Second: O=C(O)c1ccc(CCCc2c(CCNS(=O)(=O)Cc3cccc([N+](=O)[O-])c3)n(C(c3ccccc3)c3ccccc3)c3ccc(Cl)cc23)cc1 [Example 65, 4-{3-[1-benzhydryl-5-chloro-2-(2-{[(3-nitrobenzyl)sulfonyl]amino}ethyl)-1H-indol-3-yl]propyl}benzoic acid]
The IC50 of the first is 7.3-fold higher: 950 nM for the first, 130 nM for the second. The second is the more potent here.

`O=C(O)c1ccc(CCCc2c(CCNS(=O)(=O)Cc3cccnc3)n(C(c3ccccc3)c3ccccc3)c3ccc(Cl)cc23)cc1` [Example 62, 4-(3-[1-benzhydryl-5-chloro-2-(2-{[(3-pyridinylmethyl)sulfonyl]amino}ethyl)-1H-indol-3-yl]propyl}benzoic acid] gave an IC50 of 380 nM.
